Changes are numbered by the printed parent chain. Several values for one entry are separate records, joined by “and”; a condition that tells them apart may be missing. Equal values may be shown once.
What was measured:
hTA1 I290N = biological target: T1, hTA1 I290N (Homo sapiens, UniProt Q96RJ0, I290N); test: GloSensor cAMP accumulation assay, I290N mutant; format: cell-based;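 also: cells transiently co-expressing hTA1 and the GloSensor cAMP biosensor, luminescence read 30 min after compound addition at room temperature, efficacy scaled to the maximal β-PEA response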
T1 construct: expressed in transfected cells; host or cells: HEK293T
T1 sequence (Q96RJ0 1-339 I290N): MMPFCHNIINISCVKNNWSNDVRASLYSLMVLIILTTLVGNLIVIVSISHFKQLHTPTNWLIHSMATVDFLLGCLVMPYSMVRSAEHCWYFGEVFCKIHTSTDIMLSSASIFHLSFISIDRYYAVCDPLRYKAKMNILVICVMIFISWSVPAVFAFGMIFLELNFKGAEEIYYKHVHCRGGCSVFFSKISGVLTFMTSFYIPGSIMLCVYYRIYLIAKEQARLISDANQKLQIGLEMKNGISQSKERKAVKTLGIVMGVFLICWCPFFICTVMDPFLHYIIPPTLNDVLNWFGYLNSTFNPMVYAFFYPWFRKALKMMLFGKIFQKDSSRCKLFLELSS

hTA1 F195T = biological target: T2, hTA1 F195T (Homo sapiens, UniProt Q96RJ0, F195T); test: GloSensor cAMP accumulation assay, F195T mutant; format: cell-based;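 also: cells transiently co-expressing HA-FLAG-tagged hTA1 and the GloSensor cAMP biosensor, luminescence read 30 min after agonist addition at room temperature, concentration-response fitted by nonlinear regression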
T2 construct: expressed in transfected cells; host or cells: HEK293T
T2 sequence (Q96RJ0 1-339 F195T): T1 sequence (Q96RJ0 1-339 I290N) with F195T, N290I

hTA1 T194A = biological target: T3, hTA1 T194A (Homo sapiens, UniProt Q96RJ0, T194A); test: GloSensor cAMP accumulation assay, T194A mutant; details: for cAMP accumulation response, individual replicate values of the concentration-response curve: hTA1 T194A, log[Agonist], Supplementary Figure 5 source data
T3 sequence (Q96RJ0 1-339 T194A): T1 sequence (Q96RJ0 1-339 I290N) with T194A, N290I

hTA1 C88/178S = biological target: T4, hTA1 C88/178S (Homo sapiens, UniProt Q96RJ0, C178S/C88S); test: GloSensor cAMP accumulation assay, C88S/C178S double mutant; format: cell-based; details: for Normalized Luminescence Counts (N=2): log[Compound], single replicate values
T4 construct: expressed in transfected cells; host or cells: HEK293T
T4 sequence (Q96RJ0 1-339 C88S/C178S): T1 sequence (Q96RJ0 1-339 I290N) with C88S, C178S, N290I

[1] = C88S, C178S, each row is one independent experiment, 3 replicates

For NCCc1ccc(Oc2ccc(O)cc2)c(I)c1 [T1AM, 3-iodothyronamine], the “increase in potency vs wild type” value (hTA1 I290N; I290N) was “about 5 fold”, the “Span ± SEM (Emax normalized to β-PEA)” value (hTA1 I290N; I290N, n=2) was 76.97 ± 5.53 and the “pEC50 ± SEM” value (hTA1 I290N; I290N, n=2) was 6.86 ± 0.07. The EC50 (hTA1 I290N; I290N, n=2, read-out: EC50) was 139 nM, the “cAMP accumulation response, single replicate values (source data, Supplementary Figure 5)” value (hTA1 I290N; hTA1 I290N (N=2), log[Compound], M = -5) was 86.8237 and 86.3523 and 77.8671 and 98.8421 and the “ΔpEC50 values (each mutant value - WT average), Mean” value (shortened to “ΔpEC50 values”) (hTA1 I290N; hTA1 I290N mutant minus WT average) was 0.6614 and 0.7922. The “pEC50 values, Mean” value (hTA1 I290N; hTA1 I290N mutant, Figure 3B source data, each grid row a separate experiment, 3 replicates) was 6.791 and 6.921, the “Emax values, Mean” value (hTA1 I290N; hTA1 I290N mutant, β-PEA set to 100, each grid row a separate experiment, 3 replicates) was 82.4992 and 71.4451 and the “ΔpEC50 values” value (hTA1 F195T; F195T mutant minus WT average, Figure 5B) was -0.7125 and -0.7788. For the same compound, the “pEC50 values, Mean” value (hTA1 F195T; F195T mutant, Figure 5B, each row one independent experiment (3 replicates)) was 5.417 and 5.35, the “Emax values, Mean” value (hTA1 F195T; F195T mutant, Figure 5B, β-PEA = 100, each row one independent experiment (3 replicates)) was 72.2975 and 58.7221 and the “Span ± SEM (Emax normalized to β-PEA)” value (hTA1 F195T; F195T, n=2) was 65.51 ± 6.79. The “pEC50 ± SEM” value (hTA1 F195T; F195T, n=2) was 6.67 ± 1.32, the EC50 (hTA1 F195T; F195T, n=2, read-out: EC50) was 213 nM and the “pEC50 values, Mean” value (hTA1 T194A; T149A (so in the source), single experiments (3 replicates each)) was 6.398 and 6.629 and 6.1942. The “Emax values, Mean” value (hTA1 T194A; T149A (so in the source), single experiments (3 replicates each), β-PEA = 100) was 79.7491 and 146.858 and 73.3036, the EC50 (hTA1 T194A; T194A) was 235 nM and the “Span ± SEM (Emax normalized to β-PEA)” value (hTA1 T194A; T194A) was 99.97. For the same compound, the “pEC50 ± SEM” value (hTA1 T194A; T194A) was 6.41 ± 0.14, the “cAMP accumulation response, individual replicate values of the concentration-response curve” value (hTA1 T194A; M = -7.522) was 6.402 and 2.253 and 5.81 and 6.799 and 11.9487 and 8.441 and the “cAMP accumulation response, individual replicate values of the concentration-response curve” value (hTA1 T194A; M = -8) was 0.08035 and -1.303 and -0.1172 and 2.714 and 2.536 and 3.069. The “cAMP accumulation response, individual replicate values of the concentration-response curve” value (hTA1 T194A; M = -8.522) was -1.5 and -0.9074 and -0.5123 and 0.09457 and 0.1834 and 0.5385, the “cAMP accumulation response, individual replicate values of the concentration-response curve” value (hTA1 T194A; M = -9) was -0.9074 and -1.303 (2×) and -1.015 and -1.326 and -0.3494 and the “cAMP accumulation response, individual replicate values of the concentration-response curve” value (hTA1 T194A; M = -9.522) was -2.093 (3×) and -0.6158 and -1.149 and -0.527. For the same compound, the “cAMP accumulation response, individual replicate values of the concentration-response curve” value (hTA1 T194A; M = -10) was -1.698 and -1.303 and -1.105 and -0.749 (2×) and -0.4382, the “cAMP accumulation response, individual replicate values of the concentration-response curve” value (hTA1 T194A; M = -10.522) was -1.5 and -1.303 and -1.698 and -0.8822 and -1.326 and -0.971 and the “cAMP accumulation response, individual replicate values of the concentration-response curve” value (hTA1 T194A; M = -11) was -1.303 and -0.9074 and -0.3148 and -0.4826 and -0.9266 and 0.5385. The “cAMP accumulation response, individual replicate values of the concentration-response curve” value (hTA1 T194A; M = -11.522) was -1.303 (2×) and -0.9074 and -0.4382 and -0.7046 and -0.3938, the “cAMP accumulation response, individual replicate values of the concentration-response curve” value (hTA1 T194A; M = -12) was -0.5123 and -1.105 and -1.5 and -0.4826 and -0.5714 and -0.6158 and the “cAMP accumulation response, individual replicate values of the concentration-response curve” value (hTA1 T194A; M = -12.522) was -0.3148 (2×) and -0.5123 and -0.5714 (2×) and -0.305. For the same compound, the “Span ± SEM (Emax normalized to β-PEA)” value (hTA1 C88/178S; C88/178S, n=2) was 98.9 ± 13.16, the “pEC50 ± SEM” value (hTA1 C88/178S; C88/178S, n=2) was 5.96 ± 0.05 and the EC50 (hTA1 C88/178S; C88/178S, n=2, read-out: EC50) was 1090 nM. The “pEC50 values, Mean” value (hTA1 C88/178S; [1]) was 6.084 and 5.841, the “ΔEmax values (each mutant value - WT average), Mean” value (hTA1 C88/178S; [1]) was 15.2915 and 41.6133 and the “ΔpEC50 values” value (hTA1 C88/178S; [1]) was -0.04547 and -0.2881. For the same compound, the “Normalized Luminescence Counts (N=2)” value (hTA1 C88/178S; C88S, C178S, M = -5) was 73.2176 and 97.3588 and 72.5957 and 103.925 and 90.4821 and 104.378, the “Normalized Luminescence Counts (N=2)” value (hTA1 C88/178S; C88S, C178S, M = -5.522) was 67.1681 and 64.6805 and 64.737 and 67.222 and 55.8941 and 86.253 and the “Normalized Luminescence Counts (N=2)” value (hTA1 C88/178S; C88S, C178S, M = -6) was 53.4297 and 44.4403 and 51.5074 and 51.9671 and 38.3735 and 50.6077. The “Normalized Luminescence Counts (N=2)” value (hTA1 C88/178S; C88S, C178S, M = -6.522) was 23.5782 and 23.1825 and 20.8079 and 20.0978 and 14.6604 and 27.0456.

From PMC10762035, “Molecular basis of human trace amine-associated receptor 1 activation” (Nature Communications, 2024)
